From PubChem BioAssay (NCI)
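Test compounds were applied to cells in 96-well plates for 48 hours at 5 doses. Abbreviation: GI50, concentration required for 50% inhibition of growth. At the TGI there is no net growth.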

How the values were obtained:
Test in all cases: DTP human tumour cell line panel, 48 h
[1] = test system: EKVX NSCLC
[2] = test system: UO-31 renal
[3] = test system: HOP-62 NSCLC
[4] = test system: KM20L2 colon
[5] = test system: DLD-1 colon
[6] = test system: RPMI-8226 leukemia
[7] = test system: OVCAR-4 ovarian
[8] = test system: HOP-92 NSCLC
[9] = test system: HCC-2998 colon
[10] = test system: NCI/ADR-RES ovarian

SMILES	TGI [1] [µM]	TGI [2] [µM]	TGI [3] [µM]	TGI [4] [µM]	TGI [5] [µM]	TGI [6] [µM]	TGI [7] [µM]	TGI [8] [µM]	TGI [9] [µM]	TGI [10] [µM]	GI50 [1] [µM]	GI50 [2] [µM]	GI50 [9] [µM]	GI50 [4] [µM]	GI50 [5] [µM]	GI50 [6] [µM]	GI50 [7] [µM]	GI50 [8] [µM]	GI50 [3] [µM]	GI50 [10] [µM]
CC1OC(n2ccc(=O)[nH]c2=O)C=C(OC(=O)c2ccccc2)C1=O (stereo not drawn)	> 100	> 100	> 100	> 100	> 100	> 100	36.8	99.6												
CCC1C(=O)OCc2c1cc1n(c2=O)Cc2cc3ccccc3nc2-1 (stereo not drawn)	> 100	11.7	25.5			> 100	> 100	> 100	> 100	> 64.7										
O=C(CCC(=O)Nc1cccc(Cl)c1)CC(=O)c1ccc(F)cc1		> 100	> 100	> 100	> 100	> 100	> 100	> 100	> 100											
[Cl][Sn]([Cl])([c]1ccccc1)[c]1ccccc1	32.1	33.5		28	17.5	18	31	6.36	28.5		17.8	19.4	15	14.8	4.51	2.71	16.8	3.02		
O=C1c2cccnc2C(=O)C2C3C=CC(C3)C12 (stereo not drawn)	28.8	28.1	20.4			8.97	21.7	27	29.9	> 100										
CCCc1cc(O)c2c3c(c(=O)oc2c1)CN(C)CC3	> 100	> 100	> 100			91.2	> 100	> 100	69.7	> 100	> 100	35.8	30.7			24.2	82.8	15.7	67.1	> 100
CC(=O)Nc1ccc(/C=C/C(=O)c2ccccc2)cc1	33.6	21.2	29.3			17.8	45.1	51.1	29.7	73.1	16.6	5.3	15.5			3.69	17.2	17.9	14.8	17.4
CCCCOc1ccc(NC(=O)n2nc(N)c3ccccc32)cc1	85.1	> 100	60.6			28.4	> 100	54.1	37	71.1	17.4	13.4	17			2.63	26.6	17.7	24.4	23.9
CC(=O)N1N=C(c2ccc(Nc3nc(Nc4ccc(Cl)cc4)nc(Nc4ccc(Cl)cc4)n3)cc2)CC1c1ccc([N+](=O)[O-])cc1 (stereo not drawn)	> 40.1	> 100	47.4			42.4	> 100	54.7	> 80.1	> 70.4	4.22	4.29	19.3			3.61	3.85	5.18	13.5	5.41
O=S(=O)(N/N=C/c1ccc(Cl)c(Cl)c1)c1ccccc1	> 100	94.2	> 100	> 100	> 100	> 100	> 100	48.6	> 100											
CCOC(=O)c1c(-c2ccccc2)oc(-c2ccccc2)c1C(=O)OCC	> 100	> 100	> 100	> 100	> 100	> 100		> 100	> 100											
O=S(=O)(Cc1ccc(Cl)cc1Cl)c1ccc(Cl)cc1	> 100	> 53.3	> 100			> 69.7	> 100	> 92.5	8.97	3.59	2.11	1.03	1.09			1.14	5.73	20.8	3.36	0.478
Cn1c2c(c3ccccc31)CCN(CCN1CCN(c3ccccc3)CC1)C2=O	> 100	> 100		> 100	> 100	> 100		96.5												
O=C1CC(c2cccc(O)c2)C2(C(=O)NC(=S)NC2=O)C(c2cccc(O)c2)C1 (stereo not drawn)	> 100	> 100	> 100			> 100	> 100	> 100	> 100	> 100	> 100	> 100	> 100			> 100	> 100	> 100	> 100	> 100
N#C/C(=N\Nc1ccc(Cl)cc1)C(=O)Nc1cc(-c2ccccc2)nn1-c1ccccc1	> 100	> 100	> 100			6.67	7.62	4.49	> 100	> 100	2.64	2.93	3.74			1.77	2.25	1.07	3.31	3.09
C/C=C/C/C=C/CCC(=O)[C@H]1O[C@H]1C(N)=O	28.9	22.9	28.2			54.2	26.1	26.3	28.5	> 100	14.1	9.21	15			6.58		10.8	13	
COc1cc(C(=O)N2N=C(c3ccc(S(C)(=O)=O)cc3)CC2c2ccco2)cc(OC)c1OC (stereo not drawn)	> 100	> 100	> 100			4.36	> 100	> 100	> 100	> 67.7	21.3	7.23	21			0.647	7.45	3.65	26.7	6.04
